Assays:
[1] = system: patients with alpha frequency deficits / theta excess; set-up: species or system human; settings: in vivo
[2] = system: behaviorally-diagnosed psychiatric conditions (DSM categories); set-up: species or system human; settings: in vivo;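 for use code of agent in 301.7 Antisocial Personality Disorder: N marks novel agent found effective in subject subgroups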;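 for use code of agent in 301.83 Borderline Personality Disorder: N marks novel agent found effective in subject subgroups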;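 for use in 307.50 Eating Disorder NOS: N marks novel agent found effective in subject subgroups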;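 for use in 307.51 Bulimia Nervosa: N marks novel agent found effective in subject subgroups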;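 for use in 313.81 Oppositional Defiant Disorder: N marks novel agent found effective in subject subgroups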
[3] = system: patients with various DSM diagnoses; settings: human, in vivo

## N[C@@H](Cc1ccc(O)cc1)C(=O)O [L-tyrosine]
[1]
  clinical response of granddaughter: successfully treated

## O=C1Nc2ccc(Cl)cc2C(c2ccccc2Cl)=NC1O (centres unmarked) [lorazepam]
[1]
  response of chronic insomnia of patient 4: only slightly responsive

## NC(=O)CC[C@H](N)C(=O)O [GLUTAMINE, reference compound]
[2]
  agent found effective in 299.00 Autistic Disorder: N
  agent found effective in 300.00 Anxiety Disorder NOS: N
  agent found effective in 300.02 Generalized Anxiety Disorder: N
  agent found effective in 300.22 Agoraphobia Without History of Panic Disorder: N
  agent found effective in 300.23 Social Phobia: N
  agent found effective in 300.29 Specific Phobia: N
  agent found effective in 300.3 Obsessive-Compulsive Disorder: N
  agent found effective in 309.81 Posttraumatic Stress Disorder: N
  agent found effective in Panic Disorder: N
  use in Dementia of the Alzheimer's Type: N
[1]
  clinical response of granddaughter: successfully treated

## CC(NC(C)(C)C)C(=O)c1cccc(Cl)c1 (centres unmarked) [Bupropion]
[1]
  clinical response of patients 1-4: responded positively

## C[C@H](N)Cc1ccccc1 [D-amphetamine]
[3]
  false negatives: 5 patients

## NC(=O)N1c2ccccc2C=Cc2ccccc21 [carbamazepine]
[1]
  clinical response of patients 1-4: responded positively

## GABA [reference compound]
[2]
  agent found effective in 300.00 Anxiety Disorder NOS: N
  agent found effective in 300.02 Generalized Anxiety Disorder: N
  agent found effective in 300.22 Agoraphobia Without History of Panic Disorder: N
  agent found effective in 300.23 Social Phobia: N
  agent found effective in 300.29 Specific Phobia: N
  agent found effective in 300.3 Obsessive-Compulsive Disorder: N
  agent found effective in 309.81 Posttraumatic Stress Disorder: N
  agent found effective in Panic Disorder: N
  use code of agent in 301.4 Obsessive-Compulsive Personality Disorder: N
  use code of agent in 301.7 Antisocial Personality Disorder: N
  use code of agent in 301.82 Avoidant Personality Disorder: N
  use code of agent in 301.83 Borderline Personality Disorder: N
  use code of agent in 307.42 Primary Insomnia: N
  use code of agent in 316 Psychological Factors Affecting Medical Condition, Neurodermatitis: N
  use in 300.00 Anxiety Disorder NOS: N
  use in 300.02 Generalized Anxiety Disorder: N
  use in 300.22 Agoraphobia Without History of Panic Disorder: N
  use in 300.23 Social Phobia: N
  use in 300.29 Specific Phobia: N
  use in 300.3 Obsessive-Compulsive Disorder: N
  use in 307.1 Anorexia Nervosa: N
  use in 307.22 Chronic Motor or Vocal Tic Disorder: N
  use in 307.50 Eating Disorder NOS: N
  use in 307.51 Bulimia Nervosa: N
  use in 309.21 Separation Anxiety Disorder: N
  use in 309.81 Posttraumatic Stress Disorder: N
  use in 313.81 Oppositional Defiant Disorder: N
  use in Panic Disorder: N
  use of the agent in the diagnostic category (C = common use; N = novel use from rEEG features): N

## COC(=O)C(c1ccccc1)C1CCCCN1 (centres unmarked) [SR METHYLPHENIDATE]
[2]
  use code of agent in 294.8 Amnestic Disorder: N
  use code of agent in 296.89 Bipolar II Disorder: N
  use code of agent in 312.34 Intermittent Explosive Disorder: N
  use code of agent in Dementia of the Alzheimer's Type: N
  use in 299.80 Pervasive Developmental Disorder NOS: N
  use in 300.00 Anxiety Disorder NOS: N
  use in 300.02 Generalized Anxiety Disorder: N
  use in 300.22 Agoraphobia Without History of Panic Disorder: N
  use in 300.23 Social Phobia: N
  use in 300.29 Specific Phobia: N
  use in 300.3 Obsessive-Compulsive Disorder: N
  use in 307.22 Chronic Motor or Vocal Tic Disorder: N
  use in 307.9 Communication Disorder NOS: N
  use in 309.21 Separation Anxiety Disorder: N
  use in 309.81 Posttraumatic Stress Disorder: N
  use in Panic Disorder: N
  use of agent in DSM category (C/N code): N
  use of the agent in the diagnostic category (C = common use; N = novel use from rEEG features): N

## CC(C)(N)Cc1ccccc1 [PHENTERMINE]
[2]
  use code of agent in 294.9 Cognitive Disorder NOS: N
  use code of agent in 300.4 Dysthymic Disorder: N
  use code of agent in 307.50 Eating Disorder NOS: N
  use code of agent in 312.8 Conduct Disorder: N
  use of agent in DSM category (C/N code): N

Source: patent publication US7962204B2 (priority 2001, dated 2011)
